Measurements taken from patent US4528287A, “6-Fluoro-1, 4-dihydro-4-oxo-7-substituted piperazinylquinoline-3-carboxylic acids and the method for preparing the same” (priority 1983, dated 1985).
Converted amounts (≈) assume the structure as drawn. Like-named read-outs stand apart in the source and are kept apart here.

How the values were obtained:
[1] = system: Pseudomonas aeruginosa PAO7; test: MIC, twofold agar dilution; assay type: cell-based; settings: Gram -, 10^6 cells/ml, 18 hrs, 37° C., read-out: Minimum inhibitory concentration (MIC)
Experimental: (§1) Minimum inhibitory concentrations (MIC) were determined by the twofold agar dilution method (Chemotherapy, 29(1), 76(1981)). Overnight cultures in Mueller-Hinton broth were suspended by buffered saline gelatine. One loopful of the bacterial suspension (10^6 or 10^8 colony-forming units/ml) was incubated onto the test compound-containing plates. The plates were incubated for 18 hrs. at 37° C. The MIC was the lowest concentration of the drug that inhibited visible growth.

[2] = system: Staphylococcus aureus MS-353; test: MIC, twofold agar dilution; assay type: cell-based; settings: MS353, Gram +, 10^6 cells/ml, 18 hrs, 37° C., read-out: Minimum inhibitory concentration (MIC)
Experimental: as §1

[3] = system: Enterobacter aerogenes ATCC13048; test: MIC, twofold agar dilution; assay type: cell-based; settings: Klebsiella aerogenes, Gram -, 10^6 cells/ml, 18 hrs, 37° C., read-out: Minimum inhibitory concentration (MIC)
Experimental: as §1

[4] = system: Salmonella paratyphi 1015; test: MIC, twofold agar dilution; assay type: cell-based; settings: Salmonella enterica, 18 h, read-out: Minimum inhibitory concentration (MIC)
Experimental: as §1

[5] = system: Salmonella enteritidis G14; test: MIC, twofold agar dilution; assay type: cell-based; settings: Salmonella enterica, Gram -, 10^6 cells/ml, 18 hrs, 37° C., read-out: Minimum inhibitory concentration (MIC)
Experimental: as §1

Proteus vulgalis HX-19 = test: MIC, twofold agar dilution; assay type: cell-based; settings: Gram -; 10^6 cells/ml; 18 hrs, 37° C.; read-out: Minimum inhibitory concentration (MIC)
Experimental: as §1

[6] = system: Streptococcus pyogenes Cook; test: MIC, twofold agar dilution; assay type: cell-based; settings: Gram +, 10^6 cells/ml, 18 hrs, 37° C., read-out: Minimum inhibitory concentration (MIC)
Experimental: as §1

[7] = system: Pseudomonas aeruginosa ATCC9027; test: MIC, twofold agar dilution; assay type: cell-based; settings: Gram -, 10^6 cells/ml, 18 hrs, 37° C., read-out: Minimum inhibitory concentration (MIC)
Experimental: as §1

[8] = system: Salmonella typhimurium IID 971; test: MIC, twofold agar dilution; assay type: cell-based; settings: Salmonella enterica; Gram -; 10^6 cells/ml; 18 hrs, 37° C.; read-out: Minimum inhibitory concentration (MIC)
Experimental: as §1

[9] = system: Serratia marcescens IAM1184; test: MIC, twofold agar dilution; assay type: cell-based; settings: Gram -, 10^6 cells/ml, 18 hrs, 37° C., read-out: Minimum inhibitory concentration (MIC)
Experimental: as §1

[10] = system: Escherichia coli K-12 C600; test: MIC, twofold agar dilution; assay type: cell-based; settings: K12C600, Gram -, 10^6 cells/ml, 18 hrs, 37° C., read-out: Minimum inhibitory concentration (MIC)
Experimental: as §1

Salmonella typhi 901 = test: MIC, twofold agar dilution; assay type: cell-based; settings: Salmonella enterica, 18 h, read-out: Minimum inhibitory concentration (MIC)
Experimental: as §1

[11] = system: Salmonella schottmulleri 0006; test: MIC, twofold agar dilution; assay type: cell-based; settings: Gram -, 10^6 cells/ml, 18 hrs, 37° C., read-out: Minimum inhibitory concentration (MIC)
Experimental: as §1

Proteus vulgalis OX-19 = test: MIC, twofold agar dilution; assay type: cell-based; settings: Gram -; 10^6 cells/ml; 18 hrs, 37° C.; read-out: Minimum inhibitory concentration (MIC)
Experimental: as §1

[12] = system: Proteus mirabilis IFO3849; test: MIC, twofold agar dilution; assay type: cell-based; settings: Gram -, 10^6 cells/ml, 18 hrs, 37° C., read-out: Minimum inhibitory concentration (MIC)
Experimental: as §1

[13] = system: Klebsiella pneumoniae PCI-602; test: MIC, twofold agar dilution; assay type: cell-based; settings: PCI602, Gram -, 10^6 cells/ml, 18 hrs, 37° C., read-out: Minimum inhibitory concentration (MIC)
Experimental: as §1

[14] = system: Micrococcus luteus ATCC9341; test: MIC, twofold agar dilution; assay type: cell-based; settings: Gram +, 10^6 cells/ml, 18 hrs, 37° C., read-out: Minimum inhibitory concentration (MIC)
Experimental: as §1

[15] = system: Pseudomonas aeruginosa NCTC10490; test: MIC, twofold agar dilution; assay type: cell-based; settings: Gram -, 10^6 cells/ml, 18 hrs, 37° C., read-out: Minimum inhibitory concentration (MIC)
Experimental: as §1

[16] = system: Bacillus subtilis ATCC6633; test: MIC, twofold agar dilution; assay type: cell-based; settings: Gram +, 10^6 cells/ml, 18 hrs, 37° C., read-out: Minimum inhibitory concentration (MIC)
Experimental: as §1

Proteus rettgeri IFO3850 = test: MIC, twofold agar dilution; assay type: cell-based; settings: Providencia rettgeri, Gram -, 10^6 cells/ml, 18 hrs, 37° C., read-out: Minimum inhibitory concentration (MIC)
Experimental: as §1

[17] = system: Escherichia coli NIHJ-JC-2; test: MIC, twofold agar dilution; assay type: cell-based; settings: NIHJJC2, Gram -, 10^6 cells/ml, 18 hrs, 37° C., read-out: Minimum inhibitory concentration (MIC)
Experimental: as §1

[18] = system: Staphylococcus aureus Terajima; test: MIC, twofold agar dilution; assay type: cell-based; settings: Gram +, 10^6 cells/ml, 18 hrs, 37° C., read-out: Minimum inhibitory concentration (MIC)
Experimental: as §1

Proteus morganii IFO3848 = test: MIC, twofold agar dilution; assay type: cell-based; settings: Morganella morganii, Gram -, 10^6 cells/ml, 18 hrs, 37° C., read-out: Minimum inhibitory concentration (MIC)
Experimental: as §1

[19] = system: Pseudomonas aeruginosa IFO3445; test: MIC, twofold agar dilution; assay type: cell-based; settings: Gram -, 10^6 cells/ml, 18 hrs, 37° C., read-out: Minimum inhibitory concentration (MIC)
Experimental: as §1

[20] = system: Staphylococcus aureus FAD208PJC-1; test: MIC, twofold agar dilution; assay type: cell-based; settings: FAD208PJC1, Gram +, 10^6 cells/ml, 18 hrs, 37° C., read-out: Minimum inhibitory concentration (MIC)
Experimental: as §1

[21] = system: Enterobacter cloaceas 963; test: MIC, twofold agar dilution; assay type: cell-based; settings: Gram -, 10^6 cells/ml, 18 hrs, 37° C., read-out: Minimum inhibitory concentration (MIC)
Experimental: as §1

in vivo = settings: mouse, male ddY mice, 10 days
Experimental: Male mice of ddY strain, 4 weeks old, were used with 10 animals at a group. Test compounds suspended in 0.5% carboxymethyl cellulose were administered per os (p.o.) in mice. In the case of intraveneous (i.v.) administration, test compounds were solved in 0.1N-HCl solution and neutralized with 0.1N-NaOH solution.

[22] = Urinary excretion in rats after oral dosing (bioassay with Escherichia coli NIHJ-JC-2); assay type: in vivo, SD strain); settings: rat, male SD rats, 20 mg/Kg per os, fasted 24 hr
Experimental: Male rats of SD strain, weighing 180-210 g, were used 8 animals at a group. Test compounds suspended in 0.5% carboxymethyl cellulose were administered per os to 24 hr-fasted rats at dose of 20 mg/Kg. Urine was pooled from 0 to 6 hrs. and 6 to 24 hrs, and urinary excretion was measured by bioassay using Escherichia coli NIHJ-JC-2.
The assay method employed was the cup-plate method using
Escherichia coli NIHJ-JC-2. Urine was appropriately diluted with 1/15M phosphate buffer pH7.0, before assay if necessary. Standard calibration lines were made in 1/15M phosphate buffer pH7.0.

For `CCn1cc(C(=O)O)c(=O)c2cc(F)c(N3CCNC(C)C3)cc21` (stereo not shown) [Example 1, 1-Ethyl-6-fluoro-1,4-dihydro-7-(3-methyl-1-piperazinyl)-4-oxoquinoline-3-carboxylic acid], the MIC [1] was 0.78 µg/mL (≈ 2.34 µM), the MIC [2] was 0.39 µg/mL (≈ 1.17 µM) and the MIC [3] was 0.1 µg/mL (≈ 0.3 µM). It also gave an MIC [4] of 0.0125 µg/mL (≈ 0.0375 µM), an MIC [5] of 0.1 µg/mL (≈ 0.3 µM) and an MIC (Proteus vulgalis HX-19) of 0.025 µg/mL (≈ 0.075 µM). For the same molecule, the MIC [6] was 3.13 µg/mL (≈ 9.39 µM), the MIC [7] was 0.1 µg/mL (≈ 0.3 µM) and the MIC [8] was 0.1 µg/mL (≈ 0.3 µM). It also gave an MIC [9] of 0.2 µg/mL (≈ 0.6 µM), an MIC [10] of 0.1 µg/mL (≈ 0.3 µM) and an MIC (Salmonella typhi 901) of 0.05 µg/mL (≈ 0.15 µM). For the same molecule, the MIC [11] was 0.025 µg/mL (≈ 0.075 µM), the MIC (Proteus vulgalis OX-19) was 0.05 µg/mL (≈ 0.15 µM) and the MIC [12] was 0.39 µg/mL (≈ 1.17 µM). It also gave an MIC [13] of 0.025 µg/mL (≈ 0.075 µM), an MIC [14] of 25 µg/mL (≈ 75 µM) and an MIC [15] of 0.39 µg/mL (≈ 1.17 µM). It also gave an MIC [16] of 0.1 µg/mL (≈ 0.3 µM), an MIC (Proteus rettgeri IFO3850) of 0.1 µg/mL (≈ 0.3 µM) and an MIC [17] of 0.1 µg/mL (≈ 0.3 µM). It also gave an MIC [18] of 0.39 µg/mL (≈ 1.17 µM), an MIC (Proteus morganii IFO3848) of 0.025 µg/mL (≈ 0.075 µM) and an MIC [19] of 0.78 µg/mL (≈ 2.34 µM). The MIC [20] was 0.2 µg/mL (≈ 0.6 µM), the MIC [21] was 0.1 µg/mL (≈ 0.3 µM) and the LD50 at 240 h (in vivo; iv, i.v., read-out: LD50 i.v. (95% Confidence Limit)) was 348 mg/kg. The LD50 at 240 h (in vivo; po, p.o., read-out: LD50 p.o.) was > 4000 mg/kg, the concentration at 6 h ([22]; urine 0-6 hr, read-out: Drug Concentration in Urine 0-6 (hr)) was 514 µg/mL and the dose excreted at 24 h ([22]; urine 0-24 hr, read-out: Rate of Urinary Excretion 0-24 (hr)) was 30%. It also gave a concentration at 24 h ([22]; urine 6-24 hr, read-out: Drug Concentration in Urine 6-24 (hr)) of 28 µg/mL.
